Experimental findings from patent US20140066394A1, “Substituted 6-(Benzylamino) Purine Riboside Derivatives, Use Thereof and Compositions Containing These Derivatives” (Biopatterns, S.R.O, priority 2009, published 2014) are described below.

SMILES strings stand for the structures.

Experiment [1] relates to Peripheral blood neutrophils. As to the kind of experiment: Neutrophil apoptosis, Giemsa stain and light microscopy. It is filed as cell-based. Conditions: Homo sapiens, 20 hours culture, read-out: IC50 of inhibition of neutrophil apoptosis. The method, then: Neutrophils were cultured at 2×10^6 cells/ml for 20 h in RPMI1640 medium containing human serum and antibiotics and a range of concentrations of compound 10. Apoptosis was determined by differential Giemsa staining and light microscopy to determine cells with an apoptotic nuclear morphology. Data are mean±SD of 5 separate experiments.
Effects of the compounds on neutrophil apoptosis were also determined as an indication of utility in diseases where their survival is dysregulated such as systemic vasculitis and chronic inflammatory disease. Peripheral blood neutrophils were cultured for 20 hours in RPMI1640 medium containing 2% human AB serum, 2 mM L-glutamine and antibiotics (100 U/ml penicillin, […] streptomycin) and their apoptosis determined by staining with Giemsa stain and observing an apoptotic morphology by light microscopy (see Pongracz J et al. 1999, J. Biol. Chem. 274: 37329-37334). Compound 10 inhibited neurophil apoptosis with an IC50 of 1 μM (FIG. 4).

In experiment [2] the test system is neutrophils. As to the kind of experiment: ANCA induced neutrophil apoptosis. It is filed as cell-based. The conditions noted are these: Homo sapiens, 10 hours, TNFα pre-treated, anti-PR3 and anti-MPO ANCA (FIG. 9), read-out: IC50 for overcoming the increase in apoptosis imposed by ANCA. The method, then:
Neutrophils were cultured at 2×10^6 cells/ml for 10 h in RPMI1640 medium containing human serum and antibiotics and a range of concentrations of compound 10 in the absence or presence of ANCA. Apoptosis was determined by flow cytometry after DiOC6 staining.
ANCA are predominantly IgG autoantibodies directed against constituents of primary granules of neutrophils (PR3 and MPO). ANCA associated vasculitis is the most common primary systemic small-vessel vasculitis in adults. The common pathology of this disease is focal necrotizing lesions of blood vessels and may affect different vessels and organs. […] Neutrophils were cultured for 10 hours in RPMI1640 medium containing 2% human AB serum, 2 mM L-glutamine and antibiotics (100 U/ml penicillin, […] streptomycin) and their apoptosis determined by staining with Giemsa stain and observing an apoptotic morphology by light microscopy. […] The ability of compound 10 to inhibit ANCA-induced neutrophil inflammatory functions was also determined Neutrophils were cultured in RPMI1640 medium containing 2% human AB serum, 2 mM L-glutamine and antibiotics (100 U/ml penicillin, […] streptomycin). […] ANCA stimulated degranulation of neutrophils was assessed by release of myeloperoxidase in to the medium over a 30 minute period, with MPO measured by ELISA. […] HUVEC viability was determined by trypan blue staining and light microscopy.

The subject of experiment [3] is neutrophils. As to the kind of experiment: ANCA-induced neutrophil superoxide generation, lucigenin based assay. Conditions: single concentration 10 μM, 10 minute period (FIG. 11). It is filed as cell-based, human. The method, then:
FIG. 11 Inhibition of ANCA induced neutrophil ROS production by compound 10. Neutrophils were cultured at 2×10^6 cells/ml in RPMI1640 medium containing human serum antibiotics and 20 ng/ml TNFα for 10 minutes prior to addition of ANCA and a range of concentrations of compound 10. Generation of superoxide was determined over a 10 minute period using a lucigenin based assay. The area under the curve was calculated to give superoxide generation over the whole assay period.
ANCA are predominantly IgG autoantibodies directed against constituents of primary granules of neutrophils (PR3 and MPO). ANCA associated vasculitis is the most common primary systemic small-vessel vasculitis in adults. […] Neutrophils were cultured for 10 hours in RPMI1640 medium containing 2% human AB serum, 2 mM L-glutamine and antibiotics (100 U/ml penicillin, […] streptomycin) and their apoptosis determined by staining with Giemsa stain and observing an apoptotic morphology by light microscopy. […] The ability of compound 10 to inhibit ANCA-induced neutrophil inflammatory functions was also determined Neutrophils were cultured in RPMI1640 medium containing 2% human AB serum, 2 mM L-glutamine and antibiotics (100 U/ml penicillin, […] streptomycin). […] ANCA stimulated degranulation of neutrophils was assessed by release of myeloperoxidase in to the medium over a 30 minute period, with MPO measured by ELISA. […]

The IC50 is the concentration that inhibits the measured activity by half. Turning to `COc1cccc(CNc2nc(Cl)nc3c2ncn3C2OC(CO)C(O)C2O)c1O` (stereo not drawn) [Compound 10, 2-Chloro-6-(2-hydroxy-3-methoxybenzylamino)purine riboside], the IC50 turned out to be 1 µM in experiment [1] and 4 µM with neutrophils [2]. Besides, the ANCA-induced superoxide generation result in the experiment on neutrophils [3] is on record as “completely inhibited ANCA-induced superoxide generation”.
